# Source: PMC4632738, “New Peptide-Conjugated Chlorin-Type Photosensitizer Targeting Neuropilin-1 for Anti-Vascular Targeted Photodynamic Therapy” (International Journal of Molecular Sciences, 2015)
# Entries after “also recorded” stand apart in the source; their conditions may differ. Where two headings read alike, the source gives them in different places. Ends that are not written are not given here. TPC = not defined here; Ahx = NCCCCCC(=O)O
# How the values were obtained:
# [1] = Shake flask octanol/PBS pH 7.4 distribution coefficient; assay type: physicochemical; conditions: expressed as log, mean ± S.D.
# Description: The distribution coefficient values at pH 7.4 from the shake flask method and the retention time from HPLC analysis of TPC and the conjugates are summarized in Table 2. The TPC-spacer-peptides were analyzed by HPLC (column Altech, Apollo C18 reverse-phase (5 μm; 250 mm × 4.6 mm)) on a Shimadzu LC-10ATvp, monitored by a UV/Visible detector at 214 and 415 nm on a SPD-10A UV-Visible detector. […] The log DpH7.4 value for TPC–Ahx–ATWLPPR obtained (2.61 ± 0.2) was also consistent with data published by Tirand et al., confirming the hydrophobic characteristic of TPC and the TPC–Ahx–ATWLPPR conjugate.
# Hydrophilic and hydrophobic characteristics were also evaluated using the “shake flask” method to determine the solubility of the free TPC and the conjugates. […] The distribution coefficient, DpH7.4 was then expressed as log (mean ± S.D., n = 6).
# HUVEC = system: HUVEC; parameters: method as in PMID 17283031; conditions: cited from earlier work; for Light doses 50 values: red light
# [2] = molecular target: T1, recombinant NRP-1 protein (Homo sapiens, UniProt O14786); conditions: cited from earlier work
# T1 sequence (O14786 22-923): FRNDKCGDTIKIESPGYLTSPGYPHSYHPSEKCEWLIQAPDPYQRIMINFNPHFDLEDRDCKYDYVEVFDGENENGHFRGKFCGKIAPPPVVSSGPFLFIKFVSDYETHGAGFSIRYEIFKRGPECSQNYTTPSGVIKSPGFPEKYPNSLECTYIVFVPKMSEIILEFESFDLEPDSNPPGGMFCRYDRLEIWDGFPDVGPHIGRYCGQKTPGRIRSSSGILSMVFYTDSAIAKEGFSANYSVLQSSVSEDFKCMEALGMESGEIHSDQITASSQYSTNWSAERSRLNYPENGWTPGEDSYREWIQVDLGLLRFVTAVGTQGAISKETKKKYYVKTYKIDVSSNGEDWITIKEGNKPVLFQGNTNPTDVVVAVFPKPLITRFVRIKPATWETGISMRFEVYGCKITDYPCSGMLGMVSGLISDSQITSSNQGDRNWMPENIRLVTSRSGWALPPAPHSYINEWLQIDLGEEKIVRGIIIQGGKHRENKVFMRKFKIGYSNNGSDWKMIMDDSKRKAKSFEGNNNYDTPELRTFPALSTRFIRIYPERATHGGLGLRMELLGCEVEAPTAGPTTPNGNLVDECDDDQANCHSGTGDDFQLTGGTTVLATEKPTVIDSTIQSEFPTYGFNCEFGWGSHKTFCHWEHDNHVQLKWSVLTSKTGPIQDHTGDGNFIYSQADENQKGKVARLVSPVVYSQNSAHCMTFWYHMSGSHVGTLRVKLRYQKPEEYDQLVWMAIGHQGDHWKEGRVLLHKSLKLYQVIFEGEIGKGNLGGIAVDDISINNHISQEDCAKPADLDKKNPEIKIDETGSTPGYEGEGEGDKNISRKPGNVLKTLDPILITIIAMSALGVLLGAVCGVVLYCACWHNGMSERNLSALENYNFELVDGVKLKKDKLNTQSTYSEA
# [3] = molecular target: T1, recombinant NRP-1 protein; assay: Competitive binding ELISA, displacement of biotinylated VEGF165
# Description: The molecular affinity of the different TPC–peptide conjugates for recombinant NRP-1 protein was estimated through a competitive binding test using biotinylated VEGF165 to NRP-1 receptor recognition recombinant. As biotinylated VEGF165 binding to this receptor is heparin dependent, the competitive binding tests were performed in the presence of heparin (2 µg/mL).
# The conjugates were first dissolved in DMSO and subsequently diluted in methanol. Tween-20 was added in the blocking buffer to assist in the solubilization of the conjugate. The samples were prepared in ten different concentrations ranging from 3 to 960 µM.
# [4] = Photophysical characterization (UV-Vis absorption, fluorescence and singlet oxygen quantum yields); assay type: physicochemical; conditions: ethanol, room temperature; for Molar Extinction Coefficient Soret ε415: 415 nm; for Molar Extinction Coefficient QIV ε516: 516 nm; for Molar Extinction Coefficient QIII ε543: 543 nm; for Molar Extinction Coefficient QII ε598: 598 nm; for Molar Extinction Coefficient QI ε650: 650 nm; for Fluorescence quantum yield Φf: ±0.02, reference TPP in toluene; for Singlet oxygen quantum yield Φ∆: ±0.05, reference rose Bengal in ethanol
# From the text: Table 3 summarizes the molar extinction coefficient values of the six conjugates as well as their fluorescence and singlet oxygen quantum yield values.
# The photophysical properties of TPC and the TPC–peptide conjugates were characterized using three different techniques; UV/visible absorption (Perkin Elmer Lambda 2 UV-Vis spectrophotometer, Courtaboeuf, France), fluorescence emission (SPEX Fluorolog-3 spectrofluorometer, Jobin Yvon, Longjumeau, Paris, France) and singlet oxygen emission. For UV-Vis measurements, the samples of TPC and the six conjugates were diluted in ethanol and their spectra were determined in the range of 300 to 800 nm. For fluorescence emission spectra, samples with an absorption at 415 nm equal to 0.200 (±0.02) were prepared. Solvent refractive index and absorption efficiencies of fluorescence quantum yields (Φf) were calculated based on a TPP solution in toluene as a fluorescence standard reference (Φf(ref) = 0.11) as described by Equation (2): (2) ϕf=ϕf(ref)×I/Iref×Aref/A×(n/nref)^2 where A and Aref correspond to the absorbance at 415 nm of the sample and TPP, respectively, while I and Iref are the areas under the fluorescence spectra between 600 and 750 nm of the sample and TPP, respectively. n and nref are the refractive indices of solvents used for the sample and TPP, respectively (n/nethanol = 1.361, nref/ntoluene = 1.496).
# Singlet oxygen emission spectra were recorded on SPEX 1680 with […] double monochromator with a Xenon arc lamp as excitation source. Singlet oxygen generation was specifically detected at 1270 nm and the emission was monitored by using liquid nitrogen-cooled germanium-detector (EO-817P, North Coast Scientific, North Ridgeville, OH, USA). A solution of rose Bengal in ethanol was used as the reference, ΦΔ(ref) = 0.68 [25]. The singlet oxygen quantum yield was then determined using Equation (3): (3) ϕΔ=ϕΔ(ref)×I/Iref×Aref/A where A and Aref are the UV visible absorbance at 415 nm of the sample and rose Bengal (the reference), respectively, while I and Iref are the peak intensities of luminescence at 1270 nm of the sample and rose Bengal, respectively.
# [5] = cited from earlier work
# [6] = parameters: method as in PMID 17283031; conditions: cited from earlier work
# [7] = In vivo plasma concentration by HPLC after intravenous injection; conditions: mice, 2.8 mg/kg i.v., sampled at 1, 4 and 24 h
# Description: The in vivo stability study was carried out with only two of the novel conjugates synthesized; TPC–PEG18–DKPPR and TPC–PEG18–TKPRR were selected because of to their interesting hydrophilicity properties. We selected TPC–Ahx–ATWLPPR conjugate as a reference based on our previous studies. Blood and tissue samples were weighed and kept at −80 °C in polypropylene tubes, until further processing. Extraction of the conjugates from the tissues required first a solubilization step, using TEM buffer (10 mM Tris, 1.66 mM EDTA, 5 mM molybdate, pH 7.4) and homogenization. […] Conjugates levels in the plasma and tissues were determined as a percentage of the injected dose per gram […] (% injected dose/g of tissue) or per milliliter plasma. […]
# The in vivo stability analyses were performed by HPLC equipped with programmable software GOLD version 1.6 (Beckman Coulter, Fullerton, CA, USA), an auto sampler injector (507e, System Gold, Beckman Coulter) and a fluorescence detector (RF-10A XL, Shimadzu, Kyoto, Japan). […] Fluorescence excitation and emission wavelengths were detected at 416 and 652 nm, respectively. […] The conjugate levels in plasma and organs were determined from the peak areas and normalized based on standard calibration curves constructed earlier. The data were calculated as the mean value of three mice.
# [8] = In vivo stability in plasma by MALDI-TOF MS; conditions: 24 h after administration, mice
# Description: Female athymic Swiss nude/nude mice (7–9 weeks, weight range 20–25 g) were obtained from Harlan (Gannat, France). The in vivo study we conducted was based on the results obtained from the ELISA test conducted earlier. The conjugates of TPC–Ahx–ATWLPPR, TPC–PEG18–DKPPR and TPC–PEG18–TKPRR (2.8 mg/kg) were injected intravenously via the tail vein in ethanol–PEG 400–water (2:3:5, v/v/v). The mice were kept in the dark after the injection. After 1, 4 and 24 h, blood samples were collected and plasma was separated from the blood. The mice were sacrificed and tissues were carefully excised. All samples were kept in the dark at −80 °C in polypropylene tubes until further analysis.
# MALDI-TOF MS analyses were carried out on a Bruker Reflex IV time-of-flight mass spectrometer (Bruker-Daltonic, Bremen, Germany) equipped with the SCOUT 384 probe ion source fitted with a nitrogen pulsed laser (337 nm, VSD-337ND model, Laser Science Inc., Boston, MA, USA). The laser output energy was 400 μJ/pulse. Positives ions were accelerated with a 200 ns extraction delay. The reflector voltage was 23 kV. […]
# MALDI-TOF MS analyses were performed using 2,5-dihydroxybenzoic acid (DHB) (Sigma-Aldrich, Saint-Quentin-Fallavier, France) as the matrix. […] All samples were analyzed in duplicate.
molecule,measurement,setting,value
"O=C(O)c1ccc(-c2c3nc(c(-c4ccccc4)c4ccc([nH]4)c(-c4ccccc4)c4nc(c(-c5ccccc5)c5ccc2[nH]5)CC4)C=C3)cc1 [TPC, 5-(4-carboxyphenyl)-10,15,20-triphenyl chlorin]",logD,"[1]; n = 6, read-out: Shake Flask Method Distribution Coefficient, D (log D pH7.4)",2.61 ± 0.2
same,Light doses 50 values,HUVEC,4.9 ± 0.64 J/cm^2
same,Displacement of the binding of VEGF165,[2],failed to do so
same,Displacement of biotinylated VEGF165 binding onto NRP-1 protein,[3]; heparin 2 µg/mL,failed to displace; also recorded: did not show any significant binding at all
same,Molar Extinction Coefficient Soret ε415,[4],76000 L·M^−1·cm^−1
same,Molar Extinction Coefficient QIV ε516,[4],8000 L·M^−1·cm^−1
same,Molar Extinction Coefficient QIII ε543,[4],5000 L·M^−1·cm^−1
same,Molar Extinction Coefficient QII ε598,[4],4000 L·M^−1·cm^−1
same,Molar Extinction Coefficient QI ε650,[4],12000 L·M^−1·cm^−1
same,Fluorescence quantum yield Φf,[4],0.18
same,Singlet oxygen quantum yield Φ∆,[4],0.47
C1=Cc2nc1c(-c1ccccc1)c1ccc([nH]1)c(-c1ccccc1)c1nc(c(-c3ccccc3)c3ccc([nH]3)c2-c2ccccc2)C=C1 [TPP],Fluorescence quantum yield of standard reference Φf(ref),[5]; in toluene,0.11
O=C([O-])c1c(Cl)c(Cl)c(Cl)c(Cl)c1-c1c2cc(I)c(=O)c(I)c-2oc2c(I)c([O-])c(I)cc12.[Na+].[Na+] [rose Bengal],Singlet oxygen quantum yield of standard reference ΦΔ(ref),[5]; in ethanol,0.68
DKPPR [DKPPR],IC50,[3],1000 nM
TKPPR,Displacement of the binding of VEGF165 to recombinant NRP-1 (ELISA),[2]; free peptides,able to displace the binding of VEGF165
TKPRR [TKPRR],IC50,[3],1000 nM
TPC–Ahx–ATWLPPR: TPC coupled via 6-aminohexanoic acid spacer to peptide ATWLPPR; group's earlier NRP-1 targeting conjugate ({TPC-Ahx}-ATWLPPR; reading uncertain; also: printed as TPC–Ahx–ATWLPPR),Time for which conjugate could be detected in the plasma,[6],≥ 48 h
same,"Shake Flask Method Distribution Coefficient, D (log D pH7.4)",[1]; n = 6,2.61 ± 0.2
same,Enhancement of photodynamic activity versus TPC,HUVEC,10.4 fold
same,Light doses 50 values,HUVEC,0.47 ± 0.23 J/cm^2
same,Time up to which conjugate is found in plasma after intravenous injection,[7],up to 24 h
same,Displacement of the binding of VEGF165,[2],managed to displace the binding of VEGF165
same,IC50,"[2]; read-out: IC50, displacement of VEGF165 binding to NRP-1",171000 nM
same,MS signal of peak m/z 616 (attributed to the TPC moiety) in plasma,[8],not detected
same,Molar Extinction Coefficient Soret ε415,[4],74000 L·M^−1·cm^−1
same,Molar Extinction Coefficient QIV ε516,[4],6800 L·M^−1·cm^−1
same,Molar Extinction Coefficient QIII ε543,[4],4900 L·M^−1·cm^−1
same,Molar Extinction Coefficient QII ε598,[4],2600 L·M^−1·cm^−1
same,Molar Extinction Coefficient QI ε650,[4],12000 L·M^−1·cm^−1
same,Fluorescence quantum yield Φf,[4],0.18
same,Singlet oxygen quantum yield Φ∆,[4],0.39
